Data published in patent US5686449A, “1,5-benzodiazepines useful as gastrinor CCK-antagonists” (priority 1994, dated 1997).
Read-outs that look alike come from different tables or passages of the source.

Columns and labels:
CCK-A receptor = assay: CCK receptor binding, CCK-A (Pancreas Assay)
Method: (§1) Exp & Ther. 261, 1056-1063, 1992.
(§2) The binding affinity of the compounds of the invention for the CCK-A receptor (Pancreas Assay) and CCK-B receptor (guinea pig cortex assay) was determined using the procedure of G Dal Forno et al J. Pharmacol. Exp & Ther. 261-1056-1063.

CCK-B receptor = target: T1, CCK-B receptor (Cavia porcellus, UniProt H0VZC5); assay: CCK receptor binding, CCK-B (guinea pig cortex assay)
T1 construct: CCK-B receptor (guinea pig cortex assay); from tissue; host or cells: guinea pig cortex
T1 sequence (H0VZC5 1-426): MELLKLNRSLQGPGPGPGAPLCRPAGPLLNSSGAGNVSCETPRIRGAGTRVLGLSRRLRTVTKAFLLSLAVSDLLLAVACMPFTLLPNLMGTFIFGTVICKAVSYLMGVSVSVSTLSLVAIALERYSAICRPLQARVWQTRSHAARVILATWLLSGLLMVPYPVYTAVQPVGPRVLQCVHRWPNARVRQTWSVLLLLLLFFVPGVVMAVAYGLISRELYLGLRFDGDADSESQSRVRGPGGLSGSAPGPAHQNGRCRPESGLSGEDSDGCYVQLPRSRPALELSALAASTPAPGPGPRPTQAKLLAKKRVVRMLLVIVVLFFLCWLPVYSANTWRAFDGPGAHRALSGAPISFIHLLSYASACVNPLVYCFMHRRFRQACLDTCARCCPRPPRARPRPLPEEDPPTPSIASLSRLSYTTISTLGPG
Method: as §1, §2

[1] = CCK-B receptor, guinea pig cortex assay, read-out: pKi CCK-B (converted)

| pKi CCK-A (CCK-A receptor) | Ki (CCK-B receptor; [1]) [nM] | SMILES | Ki (CCK-B receptor) [nM] |
| --- | --- | --- | --- |
| 6.54 | 1.38 | CC(C)CCN1C(=O)C(NC(=O)Nc2ccccc2)C(=O)N(CC23CC4CC(CC(C4)C2)C3)c2ccccc21 (centres unmarked) [Example 1, N-[1-(1-Adamantylmethyl)-2,4-dioxo-5-(3-methylbut-1-yl)-2,3,4,5-tetrahydro-1H-1,5-benzodiazepin-3-yl]-N'-phenylurea] | – |
| – | 0.251 | O=C(Nc1ccccc1)NC1C(=O)N(CCO)c2ccccc2N(CC23CC4CC(CC(C4)C2)C3)C1=O (single isomer, unassigned; (-)) [Example 11, (-)-N-[1-(Adamantylmethyl)-2,4-dioxo-5-(2-hydroxyethyl)-2,3,4,5-tetrahydro-1H-1,5-benzodiazepin-3-yl]-N'-phenylurea] | – |
| 6.09 | 0.389 | O=C(Nc1ccccc1)NC1C(=O)N(CCCO)c2ccccc2N(CC23CC4CC(CC(C4)C2)C3)C1=O (centres unmarked) [Example 14, N-[1-(Adamantane-1-methyl)-2,4-dioxo-5-(3-hydroxypropyl)-2,3,4,5-tetrahydro-1H-1,5-benzodiazepin-3-yl]-N'-phenylurea] | – |
| – | 1 | CN1C(=O)C(NC(=O)Nc2ccccc2)C(=O)N(CC23CC4CC(CC(C4)C2)C3)c2ccccc21 (single isomer, unassigned; (-)) [Example 8, (-)-N-[1-(Adamantylmethyl)-2,4-dioxo-5-methyl-2,3,4,5-tetrahydro-1H-1,5-benzodiazepin-3-yl]-N'-phenylurea] | – |
| 6.8 | 0.398 | Cc1cccc(NC(=O)NC2C(=O)N(CCO)c3ccccc3N(CC34CC5CC(CC(C5)C3)C4)C2=O)c1 (centres unmarked) [Example 10] | – |
| – | 1.41 | O=C(Nc1ccccc1)NC1C(=O)N(CCO)c2ccccc2N(CC23CC4CC(CC(C4)C2)C3)C1=O (centres unmarked) [Example 9, N-[1-(Adamantylmethyl)-2,4-dioxo-5-(2-hydroxyethyl)-2,3,4,5-tetrahydro-1H-1,5-benzodiazepin-3-yl]-N'-phenylurea] | – |
| 6.16 | 2.04 | CCCCN1C(=O)C(NC(=O)Nc2ccc(OC)cc2)C(=O)N(CCC(C)C)c2ccccc21 (centres unmarked) [Example 12] | – |

| SMILES | pKi CCK-A (CCK-A receptor) | Ki (CCK-B receptor; [1]) [nM] | Ki (CCK-B receptor) [nM] |
| --- | --- | --- | --- |
| CC(C)CCN1C(=O)C(NC(=O)Oc2cccc(N(C)C)c2)C(=O)N(CC23CC4CC(CC(C4)C2)C3)c2ccccc21 (centres unmarked) [Example 4, 1-(1-Adamantylmethyl)-3-[3-(N,N-dimethylamino)phenyloxycarbonyl]amino-2,4-dioxo-5-(3-methylbut-1-yl)-2,3,4,5-tetrahydro-1H-1,5-benzodiazepine] | 5.80 | – | 7.59 |
| CC(C)CCN1C(=O)C(NC(=O)Nc2cccc(N(C)C)c2)C(=O)N(CC23CC4CC(CC(C4)C2)C3)c2ccccc21 (centres unmarked) [Example 2, N-[1-(1-Adamantylmethyl)-2,4-dioxo-5-(3-methylbut-1-yl)-2,3,4,5-tetrahydro-1H-1,5-benzodiazepin-3-yl]-N'-[3-(N,N-dimethylamino)phenyl]urea] | 6.02 | – | 5.62 |
| O=C(Nc1ccccc1)NC1C(=O)N(CC23CC4CC(CC(C4)C2)C3)c2ccccc2N(C2CCCCC2)C1=O (centres unmarked) [Example 3] | 6.25 | – | 2.4 |
